# Values joined by “and” are separate entries in the source; they are usually repeats but may differ in a detail not shown here. Identical values can stand only once. Like-named read-outs stand apart in the source and are kept apart here.
# Columns and labels:
# PAM4878 producing TEM-10 = experiment: MIC, engineered isogenic strain; type: cell-based, P. aeruginosa; details: TEM-10, class A; BLIs at fixed 4 µg/mL
# [1] = tested on: PAM4821 producing CTX-M-25; experiment: MIC, engineered isogenic strain; type: cell-based, P. aeruginosa; details: CTX-M-25, class A; BLIs at fixed 4 µg/mL
# [2] = tested on: Escherichia coli NCTC 13353 (ECM7514), CTX-M-15; experiment: MIC, reference strain; type: cell-based; details: for MIC: Escherichia coli, NCTC13353, CTX-M-15, BLI at the fixed concentration in brackets, read-out: MIC
# Description: (§1) Other BL/BLI combinations were tested at their recommended BLI concentrations. MIC values for the partner antibiotics and BLIs alone were also determined (Table 2; Table S1). All investigational and marketed BLIs enhanced the potency of antibiotics according to their spectrum of inhibition. MIC values against CLSI-approved QC strains were within acceptable ranges for drugs and combinations tested (Table 3).
# (§2) Isolates were tested for antimicrobial susceptibility using the broth microdilution methodology per CLSI M07 (2018) guidelines ([40]). JMI Laboratories produced frozen-form 96-well panels with cation-adjusted Mueller-Hinton broth as the testing medium. Current CLSI quality assurance practices were followed when performing the susceptibility tests. MIC values were validated by concurrently testing the following CLSI-recommended ([27]) QC reference strains: E. coli NCTC 13353 (CTX-M-15), Klebsiella pneumoniae ATCC BAA-2814 (KPC-3), Klebsiella pneumoniae ATCC BAA-1705 (KPC-2), and K. pneumoniae ATCC 700603 (SHV-18). The inoculum density during susceptibility testing was monitored by bacterial colony counts. Where applicable, QC ranges for tested reference strains were those approved or published by the CLSI ([27]). Meropenem was purchased from Carbosynth; ceftolozane was synthesized at Acme Bioscience, Palo Alto, CA, USA; all other antibiotics were from Sigma Aldrich. Xeruborbactam was synthesized at Qpex Biopharma, San Diego, CA, USA. Avibactam was purchased from eNovation, Chemicals LLC, Bridgewater, NJ, USA. Vaborbactam was synthesized at The Medicines Company, San Diego, CA. Relebactam, taniborbactam, and relebactam were synthesized at Acme Bioscience.
# PAM4888 producing IMP-4 = experiment: MIC, engineered isogenic strain; type: cell-based, P. aeruginosa; details: IMP-4, class B; BLIs at fixed 4 µg/mL
# [3] = tested on: K. pneumoniae ATCC BAA-2814 (KP1074), KPC-3; experiment: MIC, reference strain; type: cell-based; details: for MIC: Klebsiella pneumoniae, ATCCBAA2814, KPC-3, BLI at the fixed concentration in brackets, read-out: MIC; for MIC (number of observations): Table S1, repeated QC testing
# Description: as §1
# as §2, with “([27]).” for “([27]). Meropenem was purchased from Carbosynth; ceftolozane was synthesized at Acme Bioscience, Palo Alto, CA, USA; all other antibiotics were from Sigma Aldrich. Xeruborbactam was synthesized at Qpex Biopharma, San Diego, CA, USA. Avibactam was purchased from eNovation, Chemicals LLC, Bridgewater, NJ, USA. Vaborbactam was synthesized at The Medicines Company, San Diego, CA. Relebactam, taniborbactam, and relebactam were synthesized at Acme Bioscience.”
# [4] = tested on: K. pneumoniae ATCC BAA-1705 (KPM1123), KPC-2; experiment: MIC, reference strain; type: cell-based; details: for MIC: Klebsiella pneumoniae, ATCCBAA1705, KPC-2, BLI at the fixed concentration in brackets, read-out: MIC; for MIC (number of observations): Table S1, repeated QC testing
# Description: as §1
# as §2, with “([27]).” for “([27]). Meropenem was purchased from Carbosynth; ceftolozane was synthesized at Acme Bioscience, Palo Alto, CA, USA; all other antibiotics were from Sigma Aldrich. Xeruborbactam was synthesized at Qpex Biopharma, San Diego, CA, USA. Avibactam was purchased from eNovation, Chemicals LLC, Bridgewater, NJ, USA. Vaborbactam was synthesized at The Medicines Company, San Diego, CA. Relebactam, taniborbactam, and relebactam were synthesized at Acme Bioscience.”
# [5] = tested on: E. coli CDC 0069 (EC1106), NDM-1; experiment: MIC, reference strain; type: cell-based; details: Escherichia coli, BLI at the fixed concentration in brackets, read-out: MIC
# Description: as §1
# as §2, with “([27]).” for “([27]). Meropenem was purchased from Carbosynth; ceftolozane was synthesized at Acme Bioscience, Palo Alto, CA, USA; all other antibiotics were from Sigma Aldrich. Xeruborbactam was synthesized at Qpex Biopharma, San Diego, CA, USA. Avibactam was purchased from eNovation, Chemicals LLC, Bridgewater, NJ, USA. Vaborbactam was synthesized at The Medicines Company, San Diego, CA. Relebactam, taniborbactam, and relebactam were synthesized at Acme Bioscience.”
# [6] = tested on: Klebsiella pneumoniae ATCC 700603 (KPM2881), SHV-18; experiment: MIC, reference strain; type: cell-based; details: for MIC: Klebsiella pneumoniae, ATCC700603, SHV-18, BLI at the fixed concentration in brackets, read-out: MIC
# Description: as §1
# as §2, with “([27]).” for “([27]). Meropenem was purchased from Carbosynth; ceftolozane was synthesized at Acme Bioscience, Palo Alto, CA, USA; all other antibiotics were from Sigma Aldrich. Xeruborbactam was synthesized at Qpex Biopharma, San Diego, CA, USA. Avibactam was purchased from eNovation, Chemicals LLC, Bridgewater, NJ, USA. Vaborbactam was synthesized at The Medicines Company, San Diego, CA. Relebactam, taniborbactam, and relebactam were synthesized at Acme Bioscience.”
# [7] = tested on: K. pneumoniae CDC 0135 (KP1291), VIM-1; experiment: MIC, reference strain; type: cell-based; details: Klebsiella pneumoniae, BLI at the fixed concentration in brackets, read-out: MIC
# Description: as §1
# as §2, with “([27]).” for “([27]). Meropenem was purchased from Carbosynth; ceftolozane was synthesized at Acme Bioscience, Palo Alto, CA, USA; all other antibiotics were from Sigma Aldrich. Xeruborbactam was synthesized at Qpex Biopharma, San Diego, CA, USA. Avibactam was purchased from eNovation, Chemicals LLC, Bridgewater, NJ, USA. Vaborbactam was synthesized at The Medicines Company, San Diego, CA. Relebactam, taniborbactam, and relebactam were synthesized at Acme Bioscience.”
# PAM4801 producing GES-20 = experiment: MIC, engineered isogenic strain; type: cell-based, P. aeruginosa; details: GES-20, class A; BLIs at fixed 4 µg/mL
# [8] = tested on: surveillance isolates of carbapenem-resistant strains of Enterobacterales; experiment: MIC testing of SENTRY surveillance CRE isolates (Table 4, Table S4); type: cell-based; details: for % Inhibited: at ≤8 µg/mL β-lactam (IMP/REL ≤1/4, MEM/VAB ≤4/8 (≤8/8) µg/mL), footnote b
# [9] = tested on: ESBL-producing and carbapenem-resistant Enterobacterales (All, N = 1028); experiment: organism not typed; type: cell-based; details: for MIC50: read-out: MIC50; for MIC90: read-out: MIC90
# PAM4795 producing VIM-1 = experiment: MIC, engineered isogenic strain; type: cell-based, P. aeruginosa; details: VIM-1, class B; BLIs at fixed 4 µg/mL
# [10] = tested on: P. aeruginosa BAA-3197 (PA5257), KPC-2; experiment: MIC, reference strain; type: cell-based; details: for MIC: Pseudomonas aeruginosa, BAA3197, KPC-2, BLI at the fixed concentration in brackets, read-out: MIC
# PAM4910 producing VEB-2 = experiment: MIC, engineered isogenic strain; type: cell-based, P. aeruginosa; details: VEB-2, class A; BLIs at fixed 4 µg/mL
# [11] = All surveillance CRE, read-out: MIC50
# [12] = All surveillance CRE, read-out: MIC90
# [13] = Non-CP CRE subset, read-out: MIC50
# [14] = Non-CP CRE subset, read-out: MIC90
smiles,measurement,setting,value
"CO/N=C(\C(=O)N[C@@H]1C(=O)N2C(C(=O)[O-])=C(C[N+]3(C)CCCC3)CS[C@H]12)c1csc(N)n1 [FEP, cefepime]",MIC,PAM4878 producing TEM-10,16 µg/mL
same,MIC,[1],> 64 µg/mL
same,MIC,[2],> 64 µg/mL
same,MIC (number of observations),"[2]; Table S1, repeated QC testing",32 (1)-64(5)->128 (10) µg/ml
same,MIC,PAM4888 producing IMP-4,32 µg/mL
same,MIC,[3],> 64 µg/mL
same,MIC (number of observations),[3],> 32 µg/mL
same,MIC,[4],32 µg/mL
same,MIC (number of observations),[4],32 (40)->32(6) µg/ml
same,MIC,[5],64 µg/mL
same,MIC,[6],1 µg/mL
same,MIC (number of observations),"[6]; Table S1, repeated QC testing",0.5(1)-1(8)-2(1)-4(1) µg/ml
same,MIC,[7],> 64 µg/mL
same,MIC,PAM4801 producing GES-20,2 µg/mL
same,MIC50,[8],> 32 µg/mL
same,MIC90,[8],> 32 µg/mL
same,MIC50,[8]; [11],> 32 µg/mL
same,MIC90,[8]; [12],> 32 µg/mL
same,% Inhibited,[8]; KPC subset,11.70%
same,MIC50,"[8]; KPC subset, read-out: MIC50",> 32 µg/mL
same,MIC90,"[8]; KPC subset, read-out: MIC90",> 32 µg/mL
same,% Inhibited,[8]; MBL subset,0.00%
same,MIC50,"[8]; MBL subset, read-out: MIC50",> 32 µg/mL
same,MIC90,"[8]; MBL subset, read-out: MIC90",> 32 µg/mL
same,% Inhibited,[8]; NDM subset,0.00%
same,MIC50,"[8]; NDM subset, read-out: MIC50",> 32 µg/mL
same,MIC90,"[8]; NDM subset, read-out: MIC90",> 32 µg/mL
same,% Inhibited,[8]; No MBL subset,15.50%
same,MIC50,"[8]; No MBL subset, read-out: MIC50",> 32 µg/mL
same,MIC90,"[8]; No MBL subset, read-out: MIC90",> 32 µg/mL
same,% Inhibited,[8]; Non-CP CRE subset,15.20%
same,MIC50,[8]; [13],> 32 µg/mL
same,MIC90,[8]; [14],> 32 µg/mL
same,% Inhibited,[8]; OXA-48 subset,21.50%
same,MIC50,"[8]; OXA-48 subset, read-out: MIC50",> 32 µg/mL
same,MIC90,"[8]; OXA-48 subset, read-out: MIC90",> 32 µg/mL
same,% Inhibited,[8]; VIM subset,0.00%
same,MIC50,"[8]; VIM subset, read-out: MIC50",32 µg/mL
same,MIC90,"[8]; VIM subset, read-out: MIC90",> 32 µg/mL
same,MIC50,[9],64 µg/mL
same,MIC90,[9],> 64 µg/mL
same,MIC,PAM4795 producing VIM-1,> 64 µg/mL
same,MIC,[10],> 64 µg/mL
same,MIC (number of observations),"[10]; Table S1, repeated QC testing",> 128 µg/mL
same,MIC,PAM4910 producing VEB-2,> 64 µg/mL
"C[C@@H](O)[C@H]1C(=O)N2C(C(=O)O)=C(S[C@@H]3CN[C@H](C(=O)N(C)C)C3)[C@H](C)[C@H]12 [MEM, meropenem]",MIC,PAM4878 producing TEM-10,0.125 µg/mL
same,MIC,[1],0.5 µg/mL
same,MIC,[2],≤ 0.03 µg/mL
same,MIC,PAM4888 producing IMP-4,4 µg/mL
same,MIC,[3],> 64 µg/mL
same,MIC (number of observations),[3],> 32 µg/mL
same,MIC,[4],32 µg/mL
same,MIC (number of observations),[4],8 (2)-16 (16)-32 (28) µg/ml
same,MIC,[5],32 µg/mL
same,MIC,[6],≤ 0.03 µg/mL
same,MIC,[7],8 µg/mL
same,MIC,PAM4801 producing GES-20,8 µg/mL
same,MIC90,[8],16 and > 32
same,% Inhibited,[8]; All surveillance CRE,30.20%
same,MIC50,[8]; [11],32 µg/mL
same,MIC90,[8]; [12],> 32 µg/mL
same,% Inhibited,[8]; KPC subset,29.50%
same,MIC50,"[8]; KPC subset, read-out: MIC50",32 µg/mL
same,MIC90,"[8]; KPC subset, read-out: MIC90",> 32 µg/mL
same,% Inhibited,[8]; MBL subset,9.00%
same,MIC50,"[8]; MBL subset, read-out: MIC50",> 32 µg/mL
same,MIC90,"[8]; MBL subset, read-out: MIC90",> 32 µg/mL
same,% Inhibited,[8]; NDM subset,6.30%
same,MIC50,"[8]; NDM subset, read-out: MIC50",> 32 µg/mL
same,MIC90,"[8]; NDM subset, read-out: MIC90",> 32 µg/mL
same,% Inhibited,[8]; No MBL subset,39.40%
same,MIC50,"[8]; No MBL subset, read-out: MIC50",16 µg/mL
same,MIC90,"[8]; No MBL subset, read-out: MIC90",> 32 µg/mL
same,% Inhibited,[8]; Non-CP CRE subset,81.80%
same,MIC50,[8]; [13],8 µg/mL
same,MIC90,[8]; [14],16 µg/mL
same,% Inhibited,[8]; OXA-48 subset,37.20%
same,MIC50,"[8]; OXA-48 subset, read-out: MIC50",32 µg/mL
same,MIC90,"[8]; OXA-48 subset, read-out: MIC90",> 32 µg/mL
same,% Inhibited,[8]; VIM subset,35.00%
same,MIC50,"[8]; VIM subset, read-out: MIC50",16 µg/mL
same,MIC90,"[8]; VIM subset, read-out: MIC90",> 32 µg/mL
same,MIC50,[9],0.5 µg/mL
same,MIC90,[9],> 64 µg/mL
same,MIC,PAM4795 producing VIM-1,4 µg/mL
same,MIC,[10],> 64 µg/mL
same,MIC,PAM4910 producing VEB-2,0.25 µg/mL
